Experimental findings from ChEMBL document CHEMBL5357052, “Diastereomers of Steroidal Alkaloids with Cytotoxic Activities against Non-Small-Cell Lung Cancer from the Bulbs of Fritillaria sinica” (2024) are described below.

In general, CC50 refers to the concentration giving 50% cytotoxicity.

Common to all, as to type: functional
The subject of one test is A549. Kind of test: Cytotoxicity against human A549 cells assessed as reduction in cell growth incubated for 48 hrs by CCK8 method. On the technique in general: Tetrazolium dyes change colour on reduction, which living cells bring about.
The subject of the next test is NCI-H460. Kind of test: Cytotoxicity against human NCI-H460 cells assessed as reduction in cell growth incubated for 48 hrs by CCK8 method.
The test system of the next test is H9c2. Kind of test: Antioxidant activity against H2O2 treated rat H9c2 cells assessed as inhibition of MDA level at 10 uM incubated for 4 hrs followed by H2O2 administration by colorimetric assay relative to control. Details: scale not given: the % may be the effect or the level left.
Another test relates to RAW264.7. The test is described as follows: Antiinflammatory activity in mouse RAW264.7 cells assessed as inhibition of LPS induced NO production at 10 uM preincubated for 24 hrs followed by LPS stimulation and measured after 24 hrs by Griess assay relative to control. Also noted: scale not given: the % may be the effect or the level left. Conditions: time 48 hrs.

Consider `C[C@H]1CC[C@H]2[C@H](C)[C@H]3CC[C@@H]4[C@@H](C[C@H]5[C@H]4C[C@@H](O)[C@H]4C[C@@H](O)CC[C@@]45C)[C@@H]3CN2C1`, for which the CC50 in the test with A549 stood at 19 µM; with NCI-H460, 10 µM. In addition, the Activity in the test on H9c2 came out at 38%; with RAW264.7, 8.3%.

Take `C[C@H]1CC[C@H]2[C@H](C)[C@@H]3CC[C@@H]4[C@@H](C[C@H]5[C@H]4CC(=O)[C@H]4C[C@@H](O)CC[C@@]45C)[C@@H]3CN2C1`: the CC50 in the test on A549 was 30 µM; in the test on NCI-H460 it was 46 µM. In addition, the results for the Activity with H9c2 and with RAW264.7 were 39% and 23%, respectively.

For `C[C@H]1CC[C@H]2[C@H](C)[C@H]3CC[C@@H]4[C@@H](C[C@H]5[C@H]4CC(=O)[C@H]4C[C@@H](O)CC[C@@]45C)[C@@H]3CN2C1`, the values for the CC50 with A549 and in the test on NCI-H460 were 22 µM and 37 µM, respectively. The Activity was determined as 34% in the test on H9c2 and 42% in the test on RAW264.7.

In the case of `C[C@@H]1CC[C@H]2[C@H](C)[C@H]3CC[C@@H]4[C@@H](C[C@H]5[C@H]4C[C@H](O)[C@H]4C[C@@H](O)CC[C@@]45C)[C@H]3C[N+]2([O-])C1` (stereo not given in full), the CC50 in the test with A549 is 38 µM; in the test with NCI-H460, 45 µM. In addition, the Activity amounted to 15% in the test on H9c2 and 40% in the test with RAW264.7.

Take `C[C@@H]1CC[C@H]2[C@H](C)[C@H]3CC[C@@H]4[C@@H](C[C@H]5[C@H]4CC(=O)[C@H]4C[C@@H](O)CC[C@@]45C)[C@H]3C[N+]2([O-])C1` (stereo not given in full): the CC50 worked out at 9.5 µM with A549 and 11 µM in the test on NCI-H460. Also, the results for the Activity in the test with H9c2 and with RAW264.7 were 39% and 1.4%, respectively.

For the molecule `C[C@H]1CC[C@H]2[C@H](C)[C@H]3CC[C@@H]4[C@@H](C[C@H]5[C@H]4C[C@H](O)[C@H]4C[C@@H](O)CC[C@@]45C)[C@@H]3CN2C1`, the CC50 was found to be 11 µM with A549 and 20 µM in the test on NCI-H460. Besides, the Activity was determined as 29% in the test on H9c2 and 57% in the test on RAW264.7.

On to `C[C@@H]1CC[C@H]2[C@H](C)[C@H]3CC[C@@H]4[C@@H](C[C@H]5[C@H]4C[C@H](O)[C@H]4C[C@@H](O)CC[C@@]45C)[C@@H]3C[N+]2([O-])C1` (stereo not given in full), for which the CC50 with A549 was found to be 35 µM; with NCI-H460 it was 45 µM. In addition, the Activity in the test on H9c2 is reported as 48%; in the test with RAW264.7 it was 24%.

For `C[C@@H]1CC[C@H]2[C@H](C)[C@H]3CC[C@@H]4[C@@H](C[C@H]5[C@H]4C[C@H](O)[C@H]4C[C@@H](O)CC[C@@]45C)[C@@H]3CN2C1`, the CC50 with A549 was 23 µM; with NCI-H460 it was 40 µM. The Activity in the test with H9c2 is reported as 15%; in the test on RAW264.7, 7.9%.

Regarding `C[C@@H]1CC[C@H]2[C@H](C)[C@H]3CC[C@@H]4[C@@H](C[C@H]5[C@H]4CC(=O)[C@H]4C[C@@H](O[C@@H]6O[C@H](CO)[C@@H](O)[C@H](O)[C@H]6O)CC[C@@]45C)[C@H]3CN2C1`, the CC50 came out at 19 µM with A549 and 59 µM in the test with NCI-H460. Besides, the Activity came to 53% with H9c2 and 7.8% with RAW264.7.

Consider `C[C@@H]1CC[C@H]2[C@H](C)[C@@H]3CC[C@@H]4[C@@H](C[C@H]5[C@H]4CC(=O)[C@H]4C[C@@H](O)CC[C@@]45C)[C@@H]3CN2C1`, for which the CC50 in the test on A549 came out at 31 µM; in the test on NCI-H460, 37 µM. The Activity with H9c2 is 21%; with RAW264.7, 47%.

`C[C@H]1CC[C@H]2[C@H](C)c3ccc4c(c3CN2C1)C[C@H]1[C@H]4C[C@H](O)[C@H]2C[C@@H](O)CC[C@@]21C`: the CC50 stood at 34 µM in the test with A549 and 65 µM in the test on NCI-H460. For the same molecule, the results for the Activity in the test with H9c2 and in the test with RAW264.7 were 43% and 2.1%, respectively.

As to `C[C@@H]1CC[C@H]2[C@H](C)[C@H]3CC[C@@H]4[C@@H](C[C@H]5[C@H]4CC(=O)[C@H]4C[C@@H](O)CC[C@@]45C)[C@@H]3CN2C1`, the CC50 turned out to be 29 µM with A549 and 49 µM with NCI-H460. Moreover, the Activity in the test on H9c2 is recorded as 20%; with RAW264.7, -1.3%.

As for `CC1=C2C[C@H]3[C@@H](CC(=O)[C@H]4C[C@@H](O)CC[C@@]43C)[C@@H]2CC[C@]12O[C@@H]1C[C@H](C)CN[C@H]1[C@H]2C`, the 50% cytotoxic concentration (CC50) in the test with A549 was found to be 9.6 µM; in the test with NCI-H460, 17 µM. The Activity in the test with H9c2 is 72%; with RAW264.7, 66%.

Take `C[C@@H]1CC[C@H]2[C@@H](C)[C@H]3CC[C@@H]4[C@@H](C[C@H]5[C@H]4CC(=O)[C@H]4C[C@@H](O[C@@H]6O[C@H](CO)[C@@H](O)[C@H](O)[C@H]6O)CC[C@@]45C)[C@@H]3CN2C1`: the CC50 in the test on A549 was determined as 39 µM; with NCI-H460, 54 µM. For the same molecule, the Activity with H9c2 was 24%; in the test on RAW264.7, 6.1%.

In the case of `C[C@@H]1CC[C@H]2[C@H](C)c3ccc4c(c3CN2C1)C[C@H]1[C@H]4C[C@H](O)[C@H]2C[C@@H](O)CC[C@@]21C`, the figures for the CC50 with A549 and with NCI-H460 were 52 µM and 65 µM, respectively. The Activity with H9c2 turned out to be 58%; in the test with RAW264.7 it was 45%.

Take `CC1=C2C[C@H]3[C@@H](CC(=O)[C@H]4C[C@H](O)CC[C@@]43C)[C@@H]2CC[C@]12O[C@@H]1C[C@H](C)CN[C@H]1[C@H]2C`: the CC50 is 15 µM with A549 and 29 µM in the test with NCI-H460. Further, the Activity in the test on H9c2 stood at 53%; with RAW264.7, 73%.

As to `C[C@H]1CC[C@@H]2[C@H](C)[C@@H]3CC[C@@H]4[C@@H](C[C@H]5[C@H]4CC(=O)[C@H]4C[C@@H](O)CC[C@@]45C)[C@@H]3CN2C1`, the CC50 in the test on A549 amounted to 6.8 µM; in the test on NCI-H460, 25 µM. For the same molecule, the results for the Activity with H9c2 and in the test on RAW264.7 were 5.4% and 62%, respectively.

Turning to `C[C@@H]1CC[C@H]2[C@H](C)[C@H]3CC[C@@H]4[C@@H](C[C@H]5[C@H]4CC(=O)[C@H]4C[C@@H](O)CC[C@@]45C)[C@H]3CN2C1`, the CC50 was 43 µM in the test with A549 and 54 µM in the test with NCI-H460. In addition, the Activity is listed as 24% with H9c2 and 44% in the test with RAW264.7.

For `C[C@@H]1CC[C@H]2[C@H](C)[C@H]3CC[C@@H]4[C@@H](C[C@H]5[C@H]4CC(=O)[C@H]4C[C@@H](O)CC[C@@]45C)[C@@H]3C[N+]2([O-])C1` (stereo not given in full), the cytotoxic concentration (CC50) in the test on A549 worked out at 21 µM; in the test on NCI-H460, 37 µM. The figures for the Activity in the test on H9c2 and in the test with RAW264.7 were 29% and 0.9%, respectively.

As for `C[C@H]1CC[C@@H]2[C@H](C)[C@@H]3CC[C@@H]4[C@@H](C[C@H]5[C@H]4C[C@@H](O)[C@H]4C[C@@H](O)CC[C@@]45C)[C@@H]3CN2C1`, the CC50 stood at 10 µM with A549 and 12 µM with NCI-H460. Besides, the results for the Activity with H9c2 and in the test with RAW264.7 were 33% and 27%, respectively.
